The source made the active and inactive calls. No cut-off for these calls is given here.
Assays:
Androgen receptor = biological target: T1, Androgen receptor (Homo sapiens, UniProt P10275); assay: Antagonist activity at human androgen receptor LBD expressed in human MDA-kb2 cells by luciferase reporter gene assay; type: cell-based
T1 sequence (P10275 whole entry): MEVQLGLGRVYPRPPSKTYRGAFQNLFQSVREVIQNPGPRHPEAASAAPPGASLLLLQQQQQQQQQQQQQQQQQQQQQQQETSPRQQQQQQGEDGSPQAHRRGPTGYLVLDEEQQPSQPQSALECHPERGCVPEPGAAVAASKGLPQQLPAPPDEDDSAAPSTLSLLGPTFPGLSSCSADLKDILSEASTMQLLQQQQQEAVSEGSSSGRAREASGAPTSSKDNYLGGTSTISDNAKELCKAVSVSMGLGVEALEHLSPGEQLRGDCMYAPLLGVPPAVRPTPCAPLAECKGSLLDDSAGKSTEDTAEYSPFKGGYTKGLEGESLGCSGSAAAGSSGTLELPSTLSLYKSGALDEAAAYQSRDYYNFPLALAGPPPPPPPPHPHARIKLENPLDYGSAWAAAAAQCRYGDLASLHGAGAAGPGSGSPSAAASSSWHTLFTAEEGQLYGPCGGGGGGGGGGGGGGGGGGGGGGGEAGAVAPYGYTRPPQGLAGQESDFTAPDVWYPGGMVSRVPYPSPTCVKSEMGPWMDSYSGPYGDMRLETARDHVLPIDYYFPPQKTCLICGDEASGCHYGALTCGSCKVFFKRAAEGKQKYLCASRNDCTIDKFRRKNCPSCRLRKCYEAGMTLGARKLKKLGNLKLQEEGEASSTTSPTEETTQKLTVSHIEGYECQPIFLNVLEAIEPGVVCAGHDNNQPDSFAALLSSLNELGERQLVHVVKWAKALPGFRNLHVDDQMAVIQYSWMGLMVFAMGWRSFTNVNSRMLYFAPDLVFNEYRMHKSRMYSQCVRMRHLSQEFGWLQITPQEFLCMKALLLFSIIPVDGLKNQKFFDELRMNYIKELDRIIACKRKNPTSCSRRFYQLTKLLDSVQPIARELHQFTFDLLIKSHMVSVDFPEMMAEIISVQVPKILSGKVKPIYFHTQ

[1] = biological target: T2, Androgen receptor (Homo sapiens) (UniProt P10275); assay: Competitive reversible inhibition of human androgen receptor LBD expressed in human […] cells at IC10 to IC70 in presence of […]; type: cell-based
T2 sequence (whole entry): T1 sequence (P10275 whole entry)

SMILES	IC50 (Androgen receptor; read-out: IC50)	IC50 (Androgen receptor; read-out: pIC50 (converted))	inhibition [1]
CN(C)c1ccc(-c2cc(=O)c3c(O)cccc3o2)cc1	850 nM	851 nM	–
NC(=O)c1ccc(-c2cc(=O)c3c(O)cccc3o2)cc1	3580 nM	3550 nM	–
O=c1cc(-c2ccc(Cl)cc2)oc2cccc(F)c12	360 nM	363 nM	–
N#Cc1ccc(-c2cc(=O)c3c(O)cccc3o2)cc1	250 nM	251 nM	–
O=c1cc(-c2ccc(Cl)cc2)oc2cccc(O)c12	460 nM	457 nM	–
CSc1ccc(-c2cc(=O)c3c(O)cccc3o2)cc1	1070 nM	1070 nM	–
O=c1cc(-c2ccc(O)cc2)oc2cccc(O)c12	860 nM	851 nM	–
Nc1ccc(-c2cc(=O)c3c(O)cccc3o2)cc1	1990 nM	2000 nM	–
O=c1cc(-c2ccccc2)oc2cccc(F)c12	770 nM	776 nM	–
O=c1cc(-c2ccc(F)cc2)oc2cccc(O)c12	330 nM	331 nM	–
Cc1ccc(-c2cc(=O)c3c(O)cccc3o2)cc1	11100 nM	11200 nM	–
N#Cc1ccc(-c2cc(=O)c3c(F)cccc3o2)cc1	1200 nM	1200 nM	–
O=c1cc(-c2ccc(F)cc2)oc2cccc(F)c12	190 nM	191 nM	Active
O=c1cc(-c2ccc(C(F)(F)F)cc2)oc2cccc(O)c12	1240 nM	1230 nM	–
COc1cccc2oc(-c3ccc(F)cc3)cc(=O)c12	1610 nM	1620 nM	–
O=c1cc(-c2ccc([N+](=O)[O-])cc2)oc2cccc(O)c12	360 nM	363 nM	–

Source: ChEMBL document CHEMBL2385078, “The systematic structure-activity relationship to predict how flavones bind to human androgen receptor for their antagonistic activity” (Bioorg Med Chem, 2013)
